Test system: NCI-H929 complex spheroids, viability % test/control
Test: Anticancer human tumor NCI-H929 cell line growth inhibition [RAS];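 note: compound exposure lasted seven days before viability was read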;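 for viability, T/C: 100% = DMSO vehicle control viability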
Conditions: for IC50: curve of first compound; for viability, T/C: stronger effect = lower value; active = viability on the fitted dose curve at most 10% of control; inactive = the rest
Outline: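 Agents were tested in combination matrices in half-log decrements from a top concentration at or near clinical Cmax (10 microM if undetermined). Targets were multi-cell spheroids of tumour lines plus HUVEC and MSC stromal cells.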

[1] = second compound 0.000949 µM, first compound 0.0316 µM
[2] = second compound 0.000949 µM, first compound 0.1 µM
[3] = second compound 0.000949 µM, first compound 0.316 µM
[4] = second compound 0.000949 µM, first compound 1 µM
[5] = second compound 0.000949 µM, first compound 3.16 µM
[6] = second compound 0.000949 µM, first compound 10 µM
[7] = second compound 0.003 µM, first compound 0.0316 µM
[8] = second compound 0.003 µM, first compound 0.1 µM
[9] = second compound 0.003 µM, first compound 0.316 µM
[10] = second compound 0.003 µM, first compound 1 µM
[11] = second compound 0.003 µM, first compound 3.16 µM
[12] = second compound 0.003 µM, first compound 10 µM
[13] = second compound 0.00949 µM, first compound 0.0316 µM
[14] = second compound 0.00949 µM, first compound 0.1 µM
[15] = second compound 0.00949 µM, first compound 0.316 µM
[16] = second compound 0.00949 µM, first compound 1 µM
[17] = second compound 0.00949 µM, first compound 3.16 µM
[18] = second compound 0.00949 µM, first compound 10 µM
[19] = second compound 0.03 µM, first compound 0.0316 µM
[20] = second compound 0.03 µM, first compound 0.1 µM
[21] = second compound 0.03 µM, first compound 0.316 µM
[22] = second compound 0.03 µM, first compound 1 µM
[23] = second compound 0.03 µM, first compound 3.16 µM
[24] = second compound 0.03 µM, first compound 10 µM
[25] = second compound 0.0949 µM, first compound 0.0316 µM
[26] = second compound 0.0949 µM, first compound 0.1 µM
[27] = second compound 0.0949 µM, first compound 0.316 µM
[28] = second compound 0.0949 µM, first compound 1 µM
[29] = second compound 0.0949 µM, first compound 3.16 µM
[30] = second compound 0.0949 µM, first compound 10 µM
[31] = second compound 0.3 µM, first compound 0.0316 µM
[32] = second compound 0.3 µM, first compound 0.1 µM
[33] = second compound 0.3 µM, first compound 0.316 µM
[34] = second compound 0.3 µM, first compound 1 µM
[35] = second compound 0.3 µM, first compound 3.16 µM
[36] = second compound 0.3 µM, first compound 10 µM

CC1(O)CCCC1n1c(=O)c(C(F)F)cc2cnc(NC3CCN(S(C)(=O)=O)CC3)nc21 (stereo unspecified) + CCn1c(-c2cccnc2C(C)OC)c2c3cc(ccc31)N1CCOC(CC(NC(=O)C(C(C)C)N(C)C(=O)C3(F)CCN(C(=O)C#CC(C)(C)N(C)C)CC3)C(=O)N3CCCC(N3)C(=O)OCC(C)(C)C2)C1
74.3 nM: IC50 (second compound 0.00949 µM)
active: viability, T/C [3] 1.35% | viability, T/C [4] 2.44% | viability, T/C [5] 1.45% | viability, T/C [6] 0.12% | viability, T/C [9] 1.28% | viability, T/C [10] 2.8% | viability, T/C [11] 1.23% | viability, T/C [12] 0.1% | viability, T/C [15] 0.97% | viability, T/C [16] 2.52% | viability, T/C [17] 1.36% | viability, T/C [18] 0.09% | viability, T/C [21] 1.21% | viability, T/C [22] 2.78% | viability, T/C [23] 1.08% | viability, T/C [24] 0.11% | viability, T/C [27] 1.16% | viability, T/C [28] 2.55% | viability, T/C [29] 1.28% | viability, T/C [30] 0.12% | viability, T/C [33] 1.13% | viability, T/C [34] 2.31% | viability, T/C [35] 1.74% | viability, T/C [36] 0.16%
inactive: viability, T/C [1] 104% | viability, T/C [2] 32.6% | viability, T/C [7] 100% | viability, T/C [8] 34.8% | viability, T/C [13] 98.1% | viability, T/C [14] 33.3% | viability, T/C [19] 99.8% | viability, T/C [20] 28.9% | viability, T/C [25] 99.9% | viability, T/C [26] 24.5% | viability, T/C [31] 103% | viability, T/C [32] 13.5%
71 nM: IC50 (second compound 0.03 µM)
67.7 nM: IC50 (second compound 0.0949 µM)
75.4 nM: IC50 (second compound 0.000949 µM)
62.4 nM: IC50 (second compound 0.3 µM)
76.5 nM: IC50 (second compound 0.003 µM)

CCC(CC)c1cc(NC2CCC(N)C2)n2nccc2n1 (stereo unspecified) + CCn1c(-c2cccnc2C(C)OC)c2c3cc(ccc31)N1CCOC(CC(NC(=O)C(C(C)C)N(C)C(=O)C3(F)CCN(C(=O)C#CC(C)(C)N(C)C)CC3)C(=O)N3CCCC(N3)C(=O)OCC(C)(C)C2)C1
1110 nM: IC50 (second compound 0.3 µM)
inactive: viability, T/C [1] 102% | viability, T/C [2] 92.6% | viability, T/C [3] 92.5% | viability, T/C [4] 79.5% | viability, T/C [7] 100% | viability, T/C [8] 98.8% | viability, T/C [9] 93.5% | viability, T/C [10] 82.1% | viability, T/C [13] 102% | viability, T/C [14] 96.5% | viability, T/C [15] 92.5% | viability, T/C [16] 80.1% | viability, T/C [19] 97.3% | viability, T/C [20] 93.8% | viability, T/C [21] 93.5% | viability, T/C [22] 67% | viability, T/C [25] 98.1% | viability, T/C [26] 96.4% | viability, T/C [27] 89.2% | viability, T/C [28] 70.4% | viability, T/C [31] 102% | viability, T/C [32] 96.7% | viability, T/C [33] 94.3% | viability, T/C [34] 55.1%
1540 nM: IC50 (second compound 0.000949 µM) | IC50 (second compound 0.00949 µM)
1400 nM: IC50 (second compound 0.0949 µM)
1570 nM: IC50 (second compound 0.003 µM)
active: viability, T/C [5] 0.2% | viability, T/C [6] 0.2% | viability, T/C [11] 0.2% | viability, T/C [12] 0.19% | viability, T/C [17] 0.2% | viability, T/C [18] 0.18% | viability, T/C [23] 0.19% | viability, T/C [24] 0.2% | viability, T/C [29] 0.22% | viability, T/C [30] 0.22% | viability, T/C [35] 0.25% | viability, T/C [36] 0.22%
1340 nM: IC50 (second compound 0.03 µM)

Cc1nc(N2CCC3(CC2)COC(C)C3N)c(CO)nc1Sc1ccnc(N)c1Cl (stereo unspecified) + CCn1c(-c2cccnc2C(C)OC)c2c3cc(ccc31)N1CCOC(CC(NC(=O)C(C(C)C)N(C)C(=O)C3(F)CCN(C(=O)C#CC(C)(C)N(C)C)CC3)C(=O)N3CCCC(N3)C(=O)OCC(C)(C)C2)C1
> 10000 nM: IC50 (second compound 0.000949 µM) | IC50 (second compound 0.003 µM) | IC50 (second compound 0.00949 µM) | IC50 (second compound 0.03 µM) | IC50 (second compound 0.0949 µM) | IC50 (second compound 0.3 µM)
inactive: viability, T/C [1] 108% | viability, T/C [2] 99.1% | viability, T/C [3] 102% | viability, T/C [4] 102% | viability, T/C [5] 102% | viability, T/C [6] 97.8% | viability, T/C [7] 103% | viability, T/C [8] 105% | viability, T/C [9] 102% | viability, T/C [10] 101% | viability, T/C [11] 103% | viability, T/C [12] 99.5% | viability, T/C [13] 102% | viability, T/C [14] 101% | viability, T/C [15] 108% | viability, T/C [16] 100% | viability, T/C [17] 104% | viability, T/C [18] 102% | viability, T/C [19] 99.4% | viability, T/C [20] 103% | viability, T/C [21] 103% | viability, T/C [22] 99.8% | viability, T/C [23] 106% | viability, T/C [24] 104% | viability, T/C [25] 104% | viability, T/C [26] 97.1% | viability, T/C [27] 98.2% | viability, T/C [28] 101% | viability, T/C [29] 98.2% | viability, T/C [30] 95.7% | viability, T/C [31] 102% | viability, T/C [32] 103% | viability, T/C [33] 101% | viability, T/C [34] 99.7% | viability, T/C [35] 98.2% | viability, T/C [36] 95.5%

Reference: PubChem BioAssay AID2060884 (Molecular Pharmacology Branch, DTP, NCI, 2025)
